Results published in the OligoGym collection.
Where “and” joins values, the source holds several entries; their conditions need not be identical. Equal entries are not always repeated. After the bases stand the sugars from the 5' end (letter, count) and the backbone: PS all phosphorothioate, else s phosphorothioate and o phosphodiester by linkage. Methylation of C is not given here. e = 2'-O-(2-methoxyethyl) (MOE); k = constrained ethyl (cEt); d = 2'-deoxy (DNA)

Biological target: IRF4
Conditions: ASO

Sequence | target mRNA inhibition (SK-MEL-28, 4 µM) | also measured
GACCACGAGGCCCCGG (sugars k3 d10 k3, PS) | 31% | 
GACCAGAACTAATGTC (sugars k3 d10 k3, PS) |  | target mRNA inhibition (MM.1R, 1 µM): -27%
GACCAGGATTCGCCAT (sugars k3 d10 k3, PS) | 23% | 
GACCTAATCTACAACA (sugars k3 d10 k3, PS) | 33% | 
GACGACTTAAGCTAAA (sugars k3 d10 k3, PS) | 62% | 
GACTACACCTACACAG (sugars k3 d10 k3, PS) | 32% | 
GACTCAAGAAAATAGG (sugars k3 d10 k3, PS) | 64% | 
GACTTAGAGGACAGTG (sugars k3 d10 k3, PS) | 48% | 
GACTTCGGGAGATACG (sugars k3 d10 k3, PS) | 14% | 
GAGCACATGTCAACAG (sugars k3 d10 k3, PS) | 40% | 
GAGCACCAGCCATCGG (sugars k3 d10 k3, PS) | 23% | 
GAGCACCGCGCCGGAG (sugars k3 d10 k3, PS) | 7% | 
GAGCCTGGGACTCAGG (sugars k3 d10 k3, PS) | 49% | target mRNA inhibition (MM.1R, 0.074 µM): 3%; target mRNA inhibition (MM.1R, 0.222 µM): 4%; target mRNA inhibition (MM.1R, 0.666 µM): -3%; target mRNA inhibition (MM.1R, 2 µM): 7%; target mRNA inhibition (SK-MEL-28, 0.185 µM): 7%; target mRNA inhibition (SK-MEL-28, 5 µM): 58%; target mRNA inhibition (SK-MEL-28, 15 µM): 87%
GAGCGAAGGGTAAGGC (sugars k3 d10 k3, PS) | 38% | 
GAGCTCTTCCAGATCC (sugars k3 d10 k3, PS) | 5% | 
GAGGAATGAGCACTCT (sugars k3 d10 k3, PS) | 26% | 
GAGGGAGCTCATTTTG (sugars k3 d10 k3, PS) | 24% | 
GAGTAAACTTGGCTGT (sugars k3 d10 k3, PS) | 38% | 
GAGTACCCAAGACTCC (sugars k3 d10 k3, PS) | 25% | 
GAGTCACCTGGAATCT (sugars k4 d8 k4, PS) | 6% | 
GAGTGCAGGAGAGGCT (sugars k3 d10 k3, PS) | 31% | 
GATAACCTGAACATGA (sugars k3 d10 k3, PS) | 17% | 
GATAGATCTGTGGTAA (sugars k3 d10 k3, PS) |  | target mRNA inhibition (MM.1R, 1 µM): 22%
GATAGCTGAGCTGATC (sugars k3 d10 k3, PS) | 32% | 
GATAGGAAGCACTGGC (sugars k3 d10 k3, PS) | 62% | 

Sequence | target mRNA inhibition (SK-MEL-28, 4 µM) | also measured
GATAGGTATACTTAAG (sugars k3 d10 k3, PS) | 51% | 
GATAGTTAAGTACTTG (sugars k3 d10 k3, PS) | 49% | 
GATCATCAATGATGGC (sugars k3 d10 k3, PS) | 63% | 
GATGAGGGACCAGAAC (sugars k3 d10 k3, PS) | 20% | 
GATGTGATAGCTGAGC (sugars kkdddddddddekeke, PS) |  | target mRNA inhibition (MM.1R, 1 µM): 53%
GATTAATTCTCCTATG (sugars k3 d10 k3, PS) |  | target mRNA inhibition (MM.1R, 1 µM): -19%
GATTATATACTGGTTG (sugars kdddddddddkekeke, PS) |  | target mRNA inhibition (MM.1R, 1 µM): 12%
GATTTATGTTCCTTAA (sugars k3 d10 k3, PS) | 47% | 
GATTTCCGGGTGTGGC (sugars k3 d10 k3, PS) |  | target mRNA inhibition (MM.1R, 0.0625 µM): 14%; target mRNA inhibition (MM.1R, 0.25 µM): -11%; target mRNA inhibition (MM.1R, 4 µM): 33%
GCAAAACCAGTACAGT (sugars k3 d10 k3, PS) | 58% | target mRNA inhibition (MM.1R, 0.0625 µM): 3%; target mRNA inhibition (MM.1R, 0.074 µM): 17%; target mRNA inhibition (MM.1R, 0.222 µM): 0%; target mRNA inhibition (MM.1R, 0.25 µM): 6%; target mRNA inhibition (MM.1R, 0.666 µM): 4%; target mRNA inhibition (MM.1R, 1 µM): 11%; target mRNA inhibition (MM.1R, 2 µM): 13%; target mRNA inhibition (MM.1R, 4 µM): 26%
GCAAAACGCAGAGCCA (sugars k3 d10 k3, PS) | 57% | 
GCAAACGACAAGTGGC (sugars k3 d10 k3, PS) |  | target mRNA inhibition (MM.1R, 1 µM): -15%
GCAAAGCAAGTGTCTA (sugars k3 d10 k3, PS) | 43% | 
GCAACACGGGAATTTC (sugars k3 d10 k3, PS) | 66% and 74% | 
GCAATCTTAACCTGGA (sugars k3 d10 k3, PS) |  | target mRNA inhibition (MM.1R, 0.0625 µM): -3% and 3%; target mRNA inhibition (MM.1R, 0.25 µM): 8%; target mRNA inhibition (MM.1R, 1 µM): 37% and 38%; target mRNA inhibition (MM.1R, 4 µM): 70% and 71%
GCACACGCAGCCTCTA (sugars k3 d10 k3, PS) | 5% | 
GCACAGCCCTTGGTTA (sugars k3 d10 k3, PS) |  | target mRNA inhibition (MM.1R, 1 µM): 3%
GCACAGTCTCTTTTTA (sugars k3 d10 k3, PS) | 36% | 
GCACAGTCTTTTCGCA (sugars k3 d10 k3, PS) | 20% | 
GCACATCAATGTTTTA (sugars k2 d9 e3 k2, PS) |  | target mRNA inhibition (MM.1R, 1 µM): 20%
GCACATCAATGTTTTA (sugars k3 d10 k3, PS) | 67% | 
GCACATCAATGTTTTA (sugars kdddddddddkekeke, PS) |  | target mRNA inhibition (MM.1R, 1 µM): 17% and 15%
GCACATCAATGTTTTA (sugars kkdddddddddkekek, PS) |  | target mRNA inhibition (MM.1R, 1 µM): 18% and 15%
GCACGAGGAAGCATAG (sugars k3 d10 k3, PS) | 58% | 
GCACGGAGAGGGCGAG (sugars k3 d10 k3, PS) |  | target mRNA inhibition (MM.1R, 1 µM): 4%

Sequence | target mRNA inhibition (SK-MEL-28, 4 µM) | also measured
GCAGAAACAGCCCACT (sugars k3 d10 k3, PS) | 41% | 
GCAGAACGAGGTAAAT (sugars k3 d10 k3, PS) | 62% | 
GCAGGGACCGCGCCAG (sugars k3 d10 k3, PS) |  | target mRNA inhibition (MM.1R, 1 µM): 10%
GCAGTGATGTCAGGTT (sugars kkdddddddddkekek, PS) |  | target mRNA inhibition (MM.1R, 0.074 µM): 14%; target mRNA inhibition (MM.1R, 0.222 µM): 37%; target mRNA inhibition (MM.1R, 0.666 µM): 60%; target mRNA inhibition (MM.1R, 1 µM): 69%; target mRNA inhibition (MM.1R, 2 µM): 81%
GCAGTGATGTCAGGTT (sugars kkkdddddddddkeke, PS) |  | target mRNA inhibition (MM.1R, 1 µM): 56%
GCAGTTCTTAATATCA (sugars k3 d10 k3, PS) | 60% | 
GCATAGAGTCACCTGG (sugars k3 d10 k3, PS) | 39% | 
GCATAGGCATCCTTCC (sugars k3 d10 k3, PS) |  | target mRNA inhibition (MM.1R, 1 µM): 8%
GCATGCAAGCCCGTTA (sugars k3 d10 k3, PS) | -1% | 
GCATGGATCCTGAGAG (sugars k3 d10 k3, PS) |  | target mRNA inhibition (MM.1R, 1 µM): 11%
GCATTATCTACCTCAG (sugars k3 d10 k3, PS) | 69% | 
GCATTTTATCATCCGA (sugars k3 d10 k3, PS) | 63% | 
GCATTTTATCATCCGA (sugars kkdddddddddkekek, PS) |  | target mRNA inhibition (MM.1R, 1 µM): 48%
GCATTTTATCATCCGA (sugars kkkddddddddkekek, PS) |  | target mRNA inhibition (MM.1R, 1 µM): 45%
GCCAAGGACACCACCT (sugars k3 d10 k3, PS) | -2% | 
GCCAATCAGATGTCAC (sugars k3 d10 k3, PS) | 46% | 
GCCAATGCAACTGAAT (sugars k3 d10 k3, PS) | 36% | 
GCCACTGGCGGAGCTT (sugars k3 d10 k3, PS) | 23% | 
GCCATGGCTGATCGCT (sugars k3 d10 k3, PS) | 30% | 
GCCCACTGAGTGTGCA (sugars k3 d10 k3, PS) | 10% | 
GCCCATGAGTTGAAAG (sugars k3 d10 k3, PS) | 32% | 
GCCCCGAATAGGACCC (sugars k3 d10 k3, PS) | 21% | 
GCCCGGCCGGGCCTTC (sugars k3 d10 k3, PS) |  | target mRNA inhibition (MM.1R, 1 µM): -4%
GCCGCTGTCGATCTGG (sugars k4 d8 k4, PS) | 15% | 
GCCGTTCCTTTTCAGA (sugars k3 d10 k3, PS) | 62% | 

Sequence | target mRNA inhibition (SK-MEL-28, 4 µM) | also measured
GCCTAGAGGTGCCTTC (sugars k3 d10 k3, PS) |  | target mRNA inhibition (MM.1R, 1 µM): 13%
GCCTAGCATGGATCCT (sugars k3 d10 k3, PS) |  | target mRNA inhibition (MM.1R, 1 µM): -4%
GCCTGAGTTACCGCAT (sugars k3 d10 k3, PS) | 70% | target mRNA inhibition (MM.1R, 0.0625 µM): -1%; target mRNA inhibition (MM.1R, 0.074 µM): -3%; target mRNA inhibition (MM.1R, 0.222 µM): -5%; target mRNA inhibition (MM.1R, 0.25 µM): 0%; target mRNA inhibition (MM.1R, 0.666 µM): -9%; target mRNA inhibition (MM.1R, 1 µM): 13%; target mRNA inhibition (MM.1R, 2 µM): 5%; target mRNA inhibition (MM.1R, 4 µM): 41%
GCCTGGGAGTCCCCGG (sugars k3 d10 k3, PS) | 18% | 
GCCTTAATGTTCAGCT (sugars k3 d10 k3, PS) | 49% | 
GCCTTGAAGAGCGCGG (sugars k3 d10 k3, PS) | 9% | 
GCGAAGAATTTTAGCA (sugars k3 d10 k3, PS) | 12% | 
GCGCAAGTCTACAGCC (sugars k3 d10 k3, PS) | -20% | 
GCGCGGAGGGCAGGCG (sugars k3 d10 k3, PS) |  | target mRNA inhibition (MM.1R, 1 µM): -32%
GCGGACGCACGGAGAG (sugars k3 d10 k3, PS) |  | target mRNA inhibition (MM.1R, 1 µM): -9%
GCGGAGGTTCCTTGAG (sugars k3 d10 k3, PS) | 44% | 
GCGGGCACAGCCGTCC (sugars k3 d10 k3, PS) |  | target mRNA inhibition (MM.1R, 1 µM): -21%
GCTAAACCCAAAATAC (sugars k3 d10 k3, PS) | 4% | 
GCTAAACTCCTAAGTA (sugars k3 d10 k3, PS) | 30% | 
GCTAAAGAACACTGCT (sugars k3 d10 k3, PS) | 3% | 
GCTACAAAGAGCACTG (sugars k3 d10 k3, PS) | 63% | 
GCTATCAGGATCTCAA (sugars k3 d10 k3, PS) | 38% | 
GCTCACCGCGCTCATG (sugars k3 d10 k3, PS) | 48% | 
GCTCAGCATGCAAGCC (sugars k3 d10 k3, PS) | 0% | 
GCTCATGCCGAACTCT (sugars k4 d8 k4, PS) | 30% | 
GCTCATGTTTTTTGAC (sugars k3 d10 k3, PS) | 56% | 
GCTCATTTCACTGTAG (sugars k3 d10 k3, PS) | 64% | 
GCTGCCACTGGTAACT (sugars k3 d10 k3, PS) | 26% | 
